From ChEMBL document CHEMBL4402613, “Targeting ALK2: An Open Science Approach to Developing Therapeutics for the Treatment of Diffuse Intrinsic Pontine Glioma” (J Med Chem, 2020)
Activity calls are given as the source filed them. The calls are words filed in the database; no cut-off is given here.

Legend:
[1] = biological target: T1, TGF-beta receptor type-1 (Homo sapiens, UniProt P36897); type: single protein
T1 sequence (P36897 whole entry): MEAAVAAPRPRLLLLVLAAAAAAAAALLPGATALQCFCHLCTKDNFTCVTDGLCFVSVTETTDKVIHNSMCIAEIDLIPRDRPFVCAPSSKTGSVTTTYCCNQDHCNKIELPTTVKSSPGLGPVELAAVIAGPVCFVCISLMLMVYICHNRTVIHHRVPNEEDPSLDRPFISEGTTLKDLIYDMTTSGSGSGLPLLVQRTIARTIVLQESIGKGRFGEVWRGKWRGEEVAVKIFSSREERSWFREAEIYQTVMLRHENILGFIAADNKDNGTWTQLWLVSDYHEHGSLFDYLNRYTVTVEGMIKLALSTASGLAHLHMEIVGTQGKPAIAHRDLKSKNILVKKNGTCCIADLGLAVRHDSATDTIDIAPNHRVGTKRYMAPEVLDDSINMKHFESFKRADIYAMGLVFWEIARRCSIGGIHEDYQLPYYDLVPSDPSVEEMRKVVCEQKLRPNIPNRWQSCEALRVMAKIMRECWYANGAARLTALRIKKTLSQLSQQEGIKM
Description: Inhibition of human ALK5 using casein as substrate in presence of 10 uM [gamma33P] ATP by radioactive assay

[2] = biological target: T1, TGF-beta receptor type-1; type: cell-based, HEK293
Description: Inhibition of ALK5 (unknown origin) expressed in HEK293 cells transfected with CAGA-luciferase and Renilla luciferase reporter measured after 24 hrs by dual luciferase reporter assay

[3] = biological target: Bone morphogenetic protein receptor type-1A (Homo sapiens) (UniProt P36894); test: Inhibition of ALK3 (unknown origin) at 1 uM
[4] = biological target: T2, Serine/threonine-protein kinase A-Raf (Homo sapiens) (UniProt P10398); test: Inhibition of ARAF (unknown origin) at 1 uM
T2 sequence (whole entry): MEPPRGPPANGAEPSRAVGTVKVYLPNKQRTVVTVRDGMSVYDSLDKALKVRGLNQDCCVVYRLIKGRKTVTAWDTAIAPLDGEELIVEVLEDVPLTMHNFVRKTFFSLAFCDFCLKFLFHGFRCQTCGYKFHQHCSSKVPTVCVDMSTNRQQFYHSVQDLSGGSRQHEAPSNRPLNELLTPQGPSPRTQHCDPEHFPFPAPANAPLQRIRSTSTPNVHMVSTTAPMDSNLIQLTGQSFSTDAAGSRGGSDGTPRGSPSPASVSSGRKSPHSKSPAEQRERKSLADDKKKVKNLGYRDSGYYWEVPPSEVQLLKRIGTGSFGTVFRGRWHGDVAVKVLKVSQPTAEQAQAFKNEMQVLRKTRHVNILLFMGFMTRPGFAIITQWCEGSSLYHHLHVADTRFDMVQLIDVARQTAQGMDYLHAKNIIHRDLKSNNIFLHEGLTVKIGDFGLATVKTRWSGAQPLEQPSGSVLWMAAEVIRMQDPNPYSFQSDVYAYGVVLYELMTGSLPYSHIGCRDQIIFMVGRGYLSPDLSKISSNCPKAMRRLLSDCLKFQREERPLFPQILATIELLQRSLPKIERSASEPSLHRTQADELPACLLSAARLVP

[5] = biological target: Mitogen-activated protein kinase kinase kinase kinase 4 (Homo sapiens) (UniProt O95819); test: Inhibition of MAP4K4 (unknown origin) at 1 uM
[6] = biological target: Misshapen-like kinase 1 (Homo sapiens) (UniProt Q8N4C8); test: Inhibition of MINK (unknown origin) at 1 uM
[7] = biological target: T3, Non-receptor tyrosine-protein kinase TNK1 (Homo sapiens) (UniProt Q13470); test: Inhibition of TNK1 (unknown origin) at 1 uM
T3 sequence (whole entry): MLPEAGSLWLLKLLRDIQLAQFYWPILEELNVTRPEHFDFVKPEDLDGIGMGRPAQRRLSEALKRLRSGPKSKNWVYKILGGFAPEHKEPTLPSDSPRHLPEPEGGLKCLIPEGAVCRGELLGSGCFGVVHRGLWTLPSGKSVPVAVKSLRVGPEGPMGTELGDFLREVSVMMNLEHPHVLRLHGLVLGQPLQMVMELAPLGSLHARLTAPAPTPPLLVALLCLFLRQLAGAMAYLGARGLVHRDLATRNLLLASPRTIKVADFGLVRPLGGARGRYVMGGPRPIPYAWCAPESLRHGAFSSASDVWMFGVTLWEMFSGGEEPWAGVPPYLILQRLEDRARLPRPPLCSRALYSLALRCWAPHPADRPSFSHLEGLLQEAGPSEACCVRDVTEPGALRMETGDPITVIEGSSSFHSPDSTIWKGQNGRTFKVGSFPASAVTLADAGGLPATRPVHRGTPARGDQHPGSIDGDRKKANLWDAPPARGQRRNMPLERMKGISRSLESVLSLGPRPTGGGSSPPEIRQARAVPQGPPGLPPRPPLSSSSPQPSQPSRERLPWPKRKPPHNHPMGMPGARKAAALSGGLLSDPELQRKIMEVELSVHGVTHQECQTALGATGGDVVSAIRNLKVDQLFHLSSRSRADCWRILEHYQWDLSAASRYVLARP

[8] = biological target: Activin receptor type-1 (Homo sapiens, UniProt Q04771, R258G); test: Inhibition of ALK2 R258G mutant (unknown origin)
[9] = biological target: Voltage-gated inwardly rectifying potassium channel KCNH2 (Homo sapiens, UniProt Q12809)
Description: Inhibition of human ERG expressed in HEK293 cells measured after 5 mins by whole cell patch clamp method

[10] = biological target: T4, Cytochrome P450 2B6 (Homo sapiens, UniProt P20813)
T4 sequence (P20813 whole entry): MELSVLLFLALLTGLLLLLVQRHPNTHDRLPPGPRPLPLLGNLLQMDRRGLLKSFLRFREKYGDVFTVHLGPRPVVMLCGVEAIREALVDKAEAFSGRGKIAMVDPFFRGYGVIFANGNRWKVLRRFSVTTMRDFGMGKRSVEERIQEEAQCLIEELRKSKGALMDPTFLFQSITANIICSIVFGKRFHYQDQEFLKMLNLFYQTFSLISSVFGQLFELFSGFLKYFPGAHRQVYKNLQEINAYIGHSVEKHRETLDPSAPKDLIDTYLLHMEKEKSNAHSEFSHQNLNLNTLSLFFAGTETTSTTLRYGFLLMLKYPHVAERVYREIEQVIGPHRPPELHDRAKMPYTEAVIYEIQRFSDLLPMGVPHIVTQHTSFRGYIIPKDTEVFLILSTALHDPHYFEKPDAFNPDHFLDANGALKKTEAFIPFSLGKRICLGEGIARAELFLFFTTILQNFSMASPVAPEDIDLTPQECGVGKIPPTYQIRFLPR
Description: Inhibition of CYP2B6 in human liver microsomes using bupropion as substrate incubated for 40 mins in presence of NADPH by LC-MS/MS analysis

[11] = mouse, in vivo, po, 10 mg/kg, 24 h
[12] = mouse, in vivo, po, 10 mg/kg, 24 h; remark: listed apart in the source
[13] = mouse, in vivo, po, 10 mg/kg, 24 h; remark: listed apart in the source
Description: Half life in CB17 SCID mouse at 10 mg/kg, po measured up to 24 hrs by LC-MS/MS analysis

[14] = mouse, brain, po, 100 mg/kg, 4 h
Description: Ratio of total drug concentration from brain to plasma in CB17 SCID mouse at 100 mg/kg, po measured after 4 hrs

[15] = mouse, microsomes, 1 h, 1 µM
Description: Microsomal stability in CD-1 mouse liver microsomes assessed as parent compound remaining at 1 uM and 37 degree C measured after 60 mins in presence of NADP+ by LC-QTOF/MS analysis

[16] = in vitro; details: human, Caco-2
Description: Apparent permeability across basolateral to apical membrane in human Caco2 cells at 5 uM incubated for 120 mins in orbital shaker by LC-QTOF/MS analysis

Activin receptor type-1, sequence (Q04771 21-509 R258G limits assumed): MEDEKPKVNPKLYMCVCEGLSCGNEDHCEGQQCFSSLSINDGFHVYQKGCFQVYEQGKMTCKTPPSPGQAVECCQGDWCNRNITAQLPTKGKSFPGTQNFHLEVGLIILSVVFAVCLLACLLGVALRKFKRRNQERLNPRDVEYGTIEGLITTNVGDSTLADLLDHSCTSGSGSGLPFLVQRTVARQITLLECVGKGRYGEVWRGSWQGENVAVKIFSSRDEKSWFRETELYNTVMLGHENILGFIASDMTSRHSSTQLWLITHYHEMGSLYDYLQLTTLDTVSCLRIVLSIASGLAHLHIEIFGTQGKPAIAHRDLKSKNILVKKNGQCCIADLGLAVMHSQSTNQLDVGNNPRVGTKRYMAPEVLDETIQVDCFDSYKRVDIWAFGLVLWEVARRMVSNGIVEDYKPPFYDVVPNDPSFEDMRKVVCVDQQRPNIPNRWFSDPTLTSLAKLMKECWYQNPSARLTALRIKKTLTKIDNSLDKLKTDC
Misshapen-like kinase 1 (Homo sapiens), sequence (Q8N4C8 whole entry, looked up): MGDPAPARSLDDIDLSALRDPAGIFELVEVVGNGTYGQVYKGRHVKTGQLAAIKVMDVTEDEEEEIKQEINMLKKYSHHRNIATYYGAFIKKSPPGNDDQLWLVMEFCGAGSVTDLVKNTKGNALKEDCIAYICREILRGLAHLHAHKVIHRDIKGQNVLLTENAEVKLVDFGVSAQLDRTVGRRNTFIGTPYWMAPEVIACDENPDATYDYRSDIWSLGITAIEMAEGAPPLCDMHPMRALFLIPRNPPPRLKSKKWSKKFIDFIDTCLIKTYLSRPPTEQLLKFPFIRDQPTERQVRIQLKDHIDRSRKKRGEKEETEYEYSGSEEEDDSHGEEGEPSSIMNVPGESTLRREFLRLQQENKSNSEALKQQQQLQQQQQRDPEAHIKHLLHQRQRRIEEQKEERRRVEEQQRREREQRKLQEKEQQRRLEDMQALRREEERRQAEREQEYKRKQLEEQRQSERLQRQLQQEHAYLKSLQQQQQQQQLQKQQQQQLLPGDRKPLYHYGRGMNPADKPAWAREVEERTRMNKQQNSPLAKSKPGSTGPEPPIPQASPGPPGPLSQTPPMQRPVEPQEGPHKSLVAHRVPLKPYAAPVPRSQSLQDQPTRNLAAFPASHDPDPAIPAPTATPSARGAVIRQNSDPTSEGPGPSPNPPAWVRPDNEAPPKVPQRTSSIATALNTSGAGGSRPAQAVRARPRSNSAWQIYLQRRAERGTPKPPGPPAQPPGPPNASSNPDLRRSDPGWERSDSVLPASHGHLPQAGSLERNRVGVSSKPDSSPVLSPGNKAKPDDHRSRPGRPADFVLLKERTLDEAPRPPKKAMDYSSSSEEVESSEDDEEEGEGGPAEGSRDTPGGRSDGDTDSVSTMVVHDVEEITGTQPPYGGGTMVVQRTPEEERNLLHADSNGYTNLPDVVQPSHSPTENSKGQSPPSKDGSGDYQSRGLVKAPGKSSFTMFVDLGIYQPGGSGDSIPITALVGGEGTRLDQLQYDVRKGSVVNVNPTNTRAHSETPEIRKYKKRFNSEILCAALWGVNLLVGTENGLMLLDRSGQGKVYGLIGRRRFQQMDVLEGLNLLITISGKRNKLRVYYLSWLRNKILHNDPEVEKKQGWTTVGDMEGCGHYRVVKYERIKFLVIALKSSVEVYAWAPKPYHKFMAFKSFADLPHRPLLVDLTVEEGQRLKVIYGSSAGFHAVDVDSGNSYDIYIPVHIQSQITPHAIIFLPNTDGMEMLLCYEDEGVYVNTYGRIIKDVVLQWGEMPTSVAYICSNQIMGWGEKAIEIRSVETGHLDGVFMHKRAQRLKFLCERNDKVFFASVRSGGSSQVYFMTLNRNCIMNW
Mitogen-activated protein kinase kinase kinase kinase 4 (Homo sapiens), sequence (O95819 2-1239 limits assumed): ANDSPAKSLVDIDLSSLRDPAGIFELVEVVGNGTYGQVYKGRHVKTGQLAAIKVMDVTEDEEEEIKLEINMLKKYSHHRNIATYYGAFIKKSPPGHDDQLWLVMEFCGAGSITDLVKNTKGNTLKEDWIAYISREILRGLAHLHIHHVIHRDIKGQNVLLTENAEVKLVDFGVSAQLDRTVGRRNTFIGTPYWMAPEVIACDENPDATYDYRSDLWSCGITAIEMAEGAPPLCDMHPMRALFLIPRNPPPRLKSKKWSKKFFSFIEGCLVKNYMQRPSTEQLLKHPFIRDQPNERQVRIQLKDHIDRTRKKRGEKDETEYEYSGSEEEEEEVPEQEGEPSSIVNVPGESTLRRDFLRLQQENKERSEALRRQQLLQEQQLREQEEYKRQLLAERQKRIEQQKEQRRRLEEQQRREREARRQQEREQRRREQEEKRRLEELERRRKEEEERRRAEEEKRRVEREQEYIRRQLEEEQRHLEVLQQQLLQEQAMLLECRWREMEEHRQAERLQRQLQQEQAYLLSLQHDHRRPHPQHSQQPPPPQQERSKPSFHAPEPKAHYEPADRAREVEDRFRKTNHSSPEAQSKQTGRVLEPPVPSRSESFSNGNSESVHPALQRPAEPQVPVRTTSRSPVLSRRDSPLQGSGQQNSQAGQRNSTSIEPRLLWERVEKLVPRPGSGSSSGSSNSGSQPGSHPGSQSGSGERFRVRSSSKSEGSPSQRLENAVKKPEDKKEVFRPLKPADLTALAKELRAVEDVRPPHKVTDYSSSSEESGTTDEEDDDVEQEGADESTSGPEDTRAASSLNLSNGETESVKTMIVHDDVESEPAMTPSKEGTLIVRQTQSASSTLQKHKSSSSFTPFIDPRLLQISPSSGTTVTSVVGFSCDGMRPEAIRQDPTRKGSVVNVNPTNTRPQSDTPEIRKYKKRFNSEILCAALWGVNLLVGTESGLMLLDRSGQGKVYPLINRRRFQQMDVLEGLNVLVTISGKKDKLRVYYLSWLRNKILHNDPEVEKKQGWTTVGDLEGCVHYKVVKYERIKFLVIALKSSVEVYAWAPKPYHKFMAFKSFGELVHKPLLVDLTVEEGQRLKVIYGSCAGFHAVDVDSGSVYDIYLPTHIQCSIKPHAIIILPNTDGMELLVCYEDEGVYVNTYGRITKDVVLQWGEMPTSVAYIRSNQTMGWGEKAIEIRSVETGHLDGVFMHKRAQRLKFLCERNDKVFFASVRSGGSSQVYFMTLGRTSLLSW
Bone morphogenetic protein receptor type-1A (Homo sapiens), sequence (P36894 whole entry): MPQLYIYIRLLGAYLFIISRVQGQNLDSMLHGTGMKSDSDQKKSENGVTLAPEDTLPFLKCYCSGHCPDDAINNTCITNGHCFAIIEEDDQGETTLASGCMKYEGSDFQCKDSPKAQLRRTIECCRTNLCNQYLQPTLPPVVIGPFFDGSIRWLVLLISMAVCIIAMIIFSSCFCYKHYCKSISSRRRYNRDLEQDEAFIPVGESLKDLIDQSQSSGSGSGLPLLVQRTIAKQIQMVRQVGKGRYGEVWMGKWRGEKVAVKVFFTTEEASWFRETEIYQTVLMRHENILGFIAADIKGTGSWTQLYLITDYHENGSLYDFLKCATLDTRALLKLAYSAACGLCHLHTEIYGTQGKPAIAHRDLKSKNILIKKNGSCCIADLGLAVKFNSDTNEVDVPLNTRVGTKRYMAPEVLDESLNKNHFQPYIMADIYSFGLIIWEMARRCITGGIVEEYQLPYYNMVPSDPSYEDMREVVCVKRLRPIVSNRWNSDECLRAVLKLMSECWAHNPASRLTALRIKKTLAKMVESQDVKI
Voltage-gated inwardly rectifying potassium channel KCNH2, sequence (Q12809 whole entry): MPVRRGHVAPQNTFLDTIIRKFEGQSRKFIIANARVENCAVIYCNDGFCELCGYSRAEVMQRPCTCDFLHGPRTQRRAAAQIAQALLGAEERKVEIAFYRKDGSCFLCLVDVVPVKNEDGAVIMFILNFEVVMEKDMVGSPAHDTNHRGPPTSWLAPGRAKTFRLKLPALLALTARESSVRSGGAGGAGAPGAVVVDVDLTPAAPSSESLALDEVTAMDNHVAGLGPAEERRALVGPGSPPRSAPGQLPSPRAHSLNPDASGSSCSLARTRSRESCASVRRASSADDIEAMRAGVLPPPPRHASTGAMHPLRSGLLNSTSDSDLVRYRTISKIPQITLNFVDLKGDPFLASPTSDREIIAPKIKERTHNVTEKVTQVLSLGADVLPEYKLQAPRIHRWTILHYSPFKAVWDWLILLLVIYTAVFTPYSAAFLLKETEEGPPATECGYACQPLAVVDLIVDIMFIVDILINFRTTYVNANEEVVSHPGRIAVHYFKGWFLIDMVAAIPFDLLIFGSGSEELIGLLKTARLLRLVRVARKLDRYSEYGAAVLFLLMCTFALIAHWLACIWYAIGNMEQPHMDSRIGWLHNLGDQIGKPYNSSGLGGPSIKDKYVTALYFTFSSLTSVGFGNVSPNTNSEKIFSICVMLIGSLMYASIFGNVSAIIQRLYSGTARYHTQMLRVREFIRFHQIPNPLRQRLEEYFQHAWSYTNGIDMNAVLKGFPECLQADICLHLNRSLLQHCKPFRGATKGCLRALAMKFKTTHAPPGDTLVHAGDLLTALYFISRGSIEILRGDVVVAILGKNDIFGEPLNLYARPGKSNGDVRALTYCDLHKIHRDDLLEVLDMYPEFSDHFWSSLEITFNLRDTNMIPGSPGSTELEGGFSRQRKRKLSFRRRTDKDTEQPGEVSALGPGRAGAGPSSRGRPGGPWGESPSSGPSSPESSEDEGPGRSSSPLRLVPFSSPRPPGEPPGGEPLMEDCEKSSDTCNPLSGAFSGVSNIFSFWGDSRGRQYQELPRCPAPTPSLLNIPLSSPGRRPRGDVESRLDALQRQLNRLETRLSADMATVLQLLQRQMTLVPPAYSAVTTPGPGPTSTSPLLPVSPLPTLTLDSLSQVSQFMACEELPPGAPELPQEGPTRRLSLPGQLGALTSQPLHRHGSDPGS

COc1cc(-c2cncc(-c3ccc(N4CCN(C)CC4)cc3)c2C)cc(F)c1C(N)=O
IC50 [1]: 1050 nM | IC50 [2]: 4300 nM | inhibition [3]: Active | inhibition [4]: Active | inhibition [5]: Active | inhibition [6]: Active | inhibition [7]: Active | IC50 [8]: 17 nM | IC50 [9]: > 30000 nM | IC50 [10]: > 50000 nM | Cmax [11]: 2140 ng/mL | AUC [12]: 4056 ng·h/mL | t1/2 [13]: 2.56 h | BPR [14]: 0.178 | Stability [15]: Stable | Papp B→A at 2 h, 5 µM [16]: 16.2 ×10⁻⁶ cm/s
